Reference: patent publication US8173618B2, “Formulations for reducing neuronal degeneration” (University of Massachusetts, priority 2003, dated 2012)
Where “and” joins values, the source holds several entries; their conditions need not be identical. Identical values can stand only once.

What was measured:
[1] = system: differentiated SH-SY-5Y cells; experiment: Intracellular ROS by DCFD fluorescence in differentiated SH-SY-5Y cells; type: cell-based, human
Procedure: Cultured cells were used to test individual agents and formulations. In general, SH-SY-5Y human neuroblastoma cells were cultured in DMEM (Cellgro) containing 10% fetal bovine serum in 5% CO2.
For treatments with Abeta, differentiated cultures were transferred to medium without serum and treated for two hours with 20 μM Abeta25-35 (Sigma Chemical Co., St. Louis, Mo.). […] Louis, Mo.). In experiments calling for treatment of cell cultures with N-acetyl cysteine (NAC; NALC), cultures were treated with 10 mM NAC (Sigma Chemical Co., St. Louis, Mo.) after the culture was grown for two hours in serum-free medium.
Intracellular reactive oxygen species (ROS) were monitored as described in Ekinci et al., 1999 (J. Biol. Chem., 274:30322-30327). Briefly, cells were incubated for 30 minutes with dichloro-fluorescein diacetate (DCFD; acetoxymethyl ester; Molecular Probes, Inc., Eugene, Oreg.), which is used to detect intracellular peroxide levels. Incubation was followed by rinsing of cultures in serum-free medium and immediate capture of images using UV optics. Images were captured under epifluorescent and phase-contrast illumination using a DAGE CCL-72 cooled CCD camera via a Scion LG-3 frame grabber operated by NIH Image (see the Internet at rsb.info.nih.gov/nih-image). Images were then stored as PICT files on a Macintosh Power PC 7100AV for subsequent analysis. At least 100 cells in randomly-selected fields from duplicate cultures derived from multiple experiments were scored for fluorescent intensity using NIH Image analysis software. Representative background areas devoid of cells were similarly analyzed and subtracted from cell values to yield net densitometric values. All fields for each individual assay were illuminated, captured, and processed under identical settings. Corresponding phase-contrast images were obtained. Cell aggregates were excluded from the assays; only individual cells were quantified. Values were exported to Excel for statistical analyses using Student's t test.
For monitoring of intracellular peroxide concentrations as an index of ROS, cultures received 10 μl/ml DFCD (2′7′-dichlorofluorescein diacetate; Kodak) for 20 minutes. Cultures were then visualized under fluorescein UV optics (perikaryon; Ekinci and Shea, 1999, supra).

[2] = Snowdon et al., 2000; cited from earlier work
SH-SY-5Y cells = experiment: HPLC analysis of glutathione and thiols in SH-SY-5Y cells; type: cell-based, human
Procedure: Glutathione levels were quantified in homogenates of SH-SY-5Y cells. Cultures were rinsed twice with Tris-buffered saline (TBS), scraped from the plate in a small volume of TBS and homogenized on ice. Medium was also utilized for analysis of HCY along with cellular lysates, since HCY is normally exported from cells. Homogenates (100 μl) were reduced by mixing with 50 μl of 100 μM N-acetylcysteine or with 30 μl of 30 μM cystamine (as an internal standard) and 10 μl of tri-carboxyethylphosphine (100 mg/ml in 0.05 M HCl). Samples were vortexed, incubated at room temperature for 30 minutes, then centrifuged at 10,000×g for 10 minutes. 80 μl of the resulting supernatant were combined with 160 μl of 2 M boric acid/4 mM EDTA (pH 10.5), followed by 80 μl of 1.0 mg/ml SBDF [7-fluorobenzo-2-oxa-1,3-diazole-4-sulfonate] in boric acid/EDTA buffer). Samples were mixed, incubated for 60 minutes at 60° C., equilibrated to reach temperature, and 50 μl of the sample was then injected into a Hewlett Packard model 1090 HPLC, which is used with a 1046A fluorescence detector and a Hewlett Packard 4.6×60 mm high-speed analytical column packed with 3 μM ODs (C18) Hypersil silica. The mobile phase consisted of methanol/0.2 M acetate buffer pH 4.0 (2/98 by volume). Glutathione concentrations were then determined by comparison of peak area ratios of glutathione to the internal standard N-acetylcysteine in the sample compared to peak areas obtained for a glutathione standard curve. Samples were derived from 3-4 normal and 3-4 ApoE−/− mice for each dietary condition, from ≧2 independent experiments (total n≧6 for each diet for both experiments).
NAC directly scavenges ROS and also provide a source of intracellular cysteine for synthesis of glutathione during conditions of oxidative stress. […] Differentiated SH-SY-5Y cells with and without NAC treatment were subjected to HPLC along with 50 μM each of multiple thiol standards (“Standards”) as indicated in FIGS. 18A to 18C.

[3] = system: SH-SY-5Y human neuroblastoma cells; experiment: PHF-1 immunoreactivity (phospho-tau) in differentiated SH-SY-5Y cells with or without folate; type: cell-based
Procedure: Cultured cells were used to test individual agents and formulations. […] For immunocytochemistry to detect paired helical filament-1 (PHF-1) staining (as an index of tau phosphorylation), cells were fixed for 15 minutes with 4% paraformaldehyde in 0.1 M phosphate buffer and immunostained by sequential reaction with a mouse monoclonal PHF-1 antibody that was raised against tau from paired helical filaments isolated from the brains of Alzheimer disease patients. Incubation with PHF-1 antibody was followed by rhodamine conjugated goat anti-mouse IgG and visualization using methods known in the art. […] Cortical neurons were prepared from 12 day embryonic C57/B16 day old mice using known methods. Both the SH-SY-5Y cultures and the cortical neurons were processed for PHF-1 (paired helical filament 1) immunofluorescence using known methods ([…] et al., 1999 supra). Control cells cultured in the continued presence of normal folate levels were also processed. Phospho-tau was also examined using immunoblot analysis. […] The homogenates were sedimented at 13,000×g for 15 minutes and the resulting supernatant was electrophoresed, blotted, and the blot stained for PHF-1 using known methods.

[4] = folate deprivation for 24 hours

Compound: Nc1nc2ncc(CNc3ccc(C(=O)N[C@@H](CCC(=O)O)C(=O)O)cc3)nc2c(=O)[nH]1 [folate, folic acid]
- Abeta-induced increase in ROS ([1]; 5×folate (20 mg/l), 20 μM Abeta two hours): prevented
- ROS in otherwise untreated cells ([1]; 10×folate compared to 1-5×folate): marginal decrease in ROS
- ROS Mean ± SEM ([1]; folate (control), two hours): 7.6 ± 0.3
- increase in ROS ([1]; folate deprivation, compared to cells cultured in the presence of folate (Example 6)): 64±5%
- ROS Mean ± SEM ([1]; no folate, two hours): 10.5 ± 0.5
- ROS % increase vs. control ([1]; no folate, two hours, vs cultures receiving folate): 38±4% and 38%
- ROS ([1]; single agent, control cells and cells exposed to Abeta, two hours): reduced ROS
- concentration in spinal fluid versus plasma [2]: concentrated four-fold within spinal fluid over that observed within plasma
- total glutathione levels (SH-SY-5Y cells; brief (two hour) folate deprivation): no significant change
- depletion of total glutathione levels (SH-SY-5Y cells; [4]): approximately 45%
- oxidized glutathione (SH-SY-5Y cells; in the presence of folate): 4%
- oxidized glutathione (SH-SY-5Y cells; two hours of folate deprivation): 46%
- PHF-1 (phospho-tau) Mean ± SEM ([3]; +Folate 4 hr): 40.3 ± 3.9
- % increase in phospho-tau compared to control ([3]; +Folate 24 hr): −5.5%
- PHF-1 (phospho-tau) Mean ± SEM ([3]; +Folate 24 hr): 38.1 ± 3.1
- PHF-1 levels after cultures received medium containing folate ([3]; after folate deprivation for 24 hours): returned to control levels within four hours
- average increase in PHF-1 immunofluorescence ([3]; folate deficiency, two hours): 3.5 fold
- average increase in phospho-tau [3, 4]: 29%
- accumulation of phospho-tau after restoration of folate ([3]; following folate deprivation): reversed within two hours
- total tau levels (monoclonal antibody 5E2) ([3]; two hour deprivation of folate): not altered
- % increase in phospho-tau compared to control ([3]; −Folate 4 hr): 29%
- PHF-1 (phospho-tau) Mean ± SEM ([3]; −Folate 4 hr): 52.0 ± 3.4
- % increase in phospho-tau compared to control ([3]; −Folate 24 hr): −1.5%
- PHF-1 (phospho-tau) Mean ± SEM ([3]; −Folate 24 hr): 39.7 ± 2.6
